# Reference: US20050054103A1, “Expansion of renewable stem cell populations using modulators of PI 3-kinase” (priority 2003, published 2005)
# Experiments:
# CD34 cells = assay: Transition metal chelators in CD34+ cell liquid cultures (cell number, CD34 cells, clonability); format: cell-based, human
# Procedure: The interphase layer of mononuclear cells were collected, washed three times with Ca/Mg free phosphate buffered saline containing 1% bovine serum albumin (BSA). The cells were incubated for 30 min. at 4° C. with murine monoclonal anti CD34 antibody (0.5 μg/10^6 mononuclear cells) and thereafter isolated using the miniMACS apparatus (Miltenyi-Biotec, Bergisch, Gladbach, Germany) according to the manufacturer's protocol.
# Culture procedures: For the expansion of progenitor cells, CD34^+ enriched fractions or unseparated mononuclear cells were seeded at about 1-3×10^4 cells/ml in either alpha minimal essential medium containing 10% preselected fetal calf serum (FCS) (both from GIBCO, Grand Island, N.Y.), or serum-free medium (Progenitor-34 medium, Life Technologies, Grand Island, N.Y.). The media were supplemented with a mixture of growth factors and transition metal chelators. The cultures were incubated at 37° C. in an atmosphere of 5% CO2 in air with extra humidity. Half of the medium was changed weekly with fresh medium containing all the supplements.
# Cloning potential evaluations: The cloning potential of cells developed in the liquid culture was assayed, at different intervals, in semi-solid medium. The cells were washed and seeded in 35 mm dishes in methylcellulose containing alpha medium supplemented with recombinant growth factors (SCF, G-CSF, GM-CSF and EPO). Following 2 weeks incubation, the cultures were scored with an inverted microscope. Colonies were classified as blast, mixed, erythroid, myeloid, and megakaryocytic, according to their cellular composition.
# Morphological assessment: In order to characterize the resulting culture populations, aliquots of cells were deposited on a glass slide (cytocentrifuge, Shandon, Runcorn, UK), fixed and stained in May-Grunwald Giemsa. Other aliquots were stained by benzidine for intracellular hemoglobin.
# Immunofluorescence staining: At different intervals, cells from the liquid cultures were assayed for CD34 antigen. Aliquots were harvested, washed and incubated on ice with FITC-labeled anti CD45 monoclonal antibody and either PE-labeled anti CD34 (HPCA-2) monoclonal antibody or PE-labeled control mouse Ig. After incubation, red cells were lysed with lysing solution, while the remaining cells were washed and analyzed by flow cytometer.
# Flow cytometry: Cells were analyzed and sorted using FACStar^plus flow cytometer (Becton-Dickinson, Immunofluorometry systems, Mountain View, Calif.). Cells were passed at a rate of 1,000 cells/second through a […] nozzle, using saline as the sheath fluid. […] The PMTs was set at the appropriate voltage. Logarithmic amplification was applied for measurements of fluorescence and linear amplification—for forward light scatter. At least 10^4 cells were analyzed.
# Cord blood-derived CD34 cells were plated in liquid culture in the presence of: FL—50 ng/ml, SCF—50 ng/ml, IL-6—50 ng/ml, with or without IL-3—20 ng/ml, with or without TEPA—10 μM. On day 7, the percentage of CD34 cells and the total cell number were determined. Aliquots equivalent to 1×10^3 initiating cells were assayed on days 0 and 7 for colony forming cells (CFU) by cloning in semi-solid medium. CFU expansion represents the ratio of CFU present on day 7 to CFU present on day 0.
# CD34^+ cells derived from human neonatal cord blood were purified by immunomagnetic method and then cultured in liquid medium supplemented with cytokines either with or without transition metal chelators. At weekly intervals, the cultures were demi-depopulated by removing half of the culture content (supernatant and cells) and replacing it with fresh medium, cytokines and the chelators. At the indicated weeks the cellular content of the cultures were quantified for total cells (by a manual microscopic/hemocytometric method), for CD34^+ cells (by immuno-flow cytometry) and for clonogenic cells (by cloning the cells in cytokine-supplemented semi-solid medium).
# [1] = system: HL-60 (human myeloid leukemia cell line); assay: Inhibition / induction of differentiation and growth inhibition of HL-60 cells by chelators; format: cell-based; details: 1000 nM
# Description: (§1) FIG. 44 provides the chemical structure of the various chelators employed in these experiments.
# HL-60 cells = assay: Copper determination in chelator treated cells (atomic absorption); format: cell-based, human
# Procedure: Copper Determination: Cells were harvested by centrifugation at 1000×g for 5 minutes. The cell pellet was washed three times by re-suspending the cells in PBS (Ca^++ and Mg^++ free) and centrifugation at 1000×g. An aliquot containing 2×10^6 cells was then transferred into a metal-free Eppendorf tube and the cells were recovered by centrifugation at 1000×g. The cell pellet was re-suspended in 0.03 M ultra-pure nitric acid to give a concentration of 1×10^7 cells/ml. The cells were homogenized with a high shear mixer (polytron, Kinematica, Switzerland) for 1 minutes to disrupt the cell and release intracellular copper content. Cell samples were vortexed before transferring to a vial autosampler and analyzed in duplicate by a Perkin Elmer graphite furnace atomic absorption spectrophotometer at a wavelength of 324.7 nm. The samples were analyzed against copper standard solution prepared from a commercial stock solution that was diluted with 0.03 M ultra pure nitric acid.
# as §1
# [2] = system: Lin− c-kit+ Sca-1+ murine hematopoietic precursors; details: cultured 7 days; cited from earlier work
# CD34+ cells = assay: Ex vivo expansion of CD34+ cells with the PI 3-kinase inhibitor Ly294002; format: cell-based, human
# Procedure: Mononuclear cell fraction collection and purification: Human blood cells were obtained from umbilical cord blood from female patients following full-term, normal delivery (informed consent was obtained). Samples were collected and processed within 12 hours postpartum. […] Louis, Mo.), sedimented for 30 minutes to remove most red blood cells. The leukocyte-rich fraction was harvested and layered on a Ficoll-Hypaque gradient (1.077 gram/ml; Sigma), and centrifuged at 400 g for 30 minutes. […] Sigma, St. Louis, Mo.). Purification of CD34^+ cells from mononuclear cell fractions: To purify CD34^+ mononuclear cells, the mononuclear cell fraction was subjected to two cycles of immuno-magnetic separation using the MiniMACS® or […]® CD34 Progenitor Cell Isolation Kit (Miltenyi Biotec, Auburn, Calif.) as per manufacturer's recommendations. The purity of the CD34^+ population obtained ranged from 95% to 98%, as determined by flow cytometry (see below). Ex vivo expansion: Purified CD34+ cells were cultured in culture bags (American Fluoroseal Co. Gaithersburg, Md., USA) at a concentration of 1×10^4 cells/ml in MEMα/10% FCS containing the following human recombinant cytokines: […] The cultures were replenished weekly, for three weeks, with the same volume of fresh medium, Ly294002 and growth factors. From week three and up to the termination of the experiments the cultures were weekly demi-depopulated. Cells were counted following staining with trypan blue. At various time points, harvested cells were used to assay the content of colony forming units in culture (CFUc), enumeration of CD34+ cells following re-selection and immunophenotype analysis. Cell morphology was determined on cytospin (Shandon, Pittsburgh, Pa., USA) prepared smears stained with May-Grunwald/Giemsa solutions. Surface antigen analysis: The cells were washed with a PBS solution containing 1% BSA, and stained (at 4° C. for 30 min) with fluorescein isothiocyanate (FITC)- or phycoerythrin (PE)-conjugated antibodies. The cells were then washed in the above buffer and analyzed using a FACScalibur® flow cytometer (Becton Dickinson, San Jose, Calif., USA). The cells were passed at a rate of up to 1000 cells/second, using a 488 nm argon laser beam as the light source for excitation. Emission of 10^4 cells was measured using logarithmic amplification, and analyzed using the CellQuest software (Becton Dickinson). Determination of CD34+ cell content after expansion: The content of CD34+ cells was determined from a purified, re-selected fraction of expanded hematopoietic progenitor cells, using the MiniMACS CD34 progenitor cell isolation kit (Miltenyi Biotec) according to the manufacturers recommendations. In brief, mononuclear cells derived from one portion of the culture were subjected to two cycles of immunomagnetic bead separation. The purity of the CD34+ population thus obtained was 95-98%, as evaluated by flow cytometry. CD34+ cell content of the entire culture was calculated as follows: number of CD34+ cells recovered following repurification after expansion multiplied by the culture volume/volume of the portion of the culture subjected to repurification (CD34+total=CD34+ in sample×total culture volume/volume of repurified sample). Up to week three the cultures were topped weekly with fresh medium. Therefore, the culture volume was measured directly. From week three and on (due to demi-depopulation), the culture volume was calculating by multiplying the actual volume with the number of passages. Fold expansion was calculated by dividing the CD34+ cell content of the culture by the number of inoculated CD34+ cells (Fold expansion=total CD34+ content/CD34+ inoculated). […] Determination of early CD34+ cell subsets: The percentages of the early CD34+ cell subsets were determined as well from the re-purified CD34+ cell fraction. […]
# [3] = cited from earlier work
# [4] = system: cord blood-derived CD34+ cells; assay: Copper-chelating peptides in CD34 cell cultures (proliferation, clonability); format: cell-based, human; details: after 7 weeks; peptides 10 μM each, G-CSF and GM-CSF 10 ng/ml each
# Procedure: CD34 cells selection: Peripheral blood “buffy coat” cells derived from a whole blood unit, peripheral blood cells obtained following leukapheresis, or blood cells were layered on Ficoll-Hypaque (density 1.077 g/ml) and centrifuged at 1,000×g for 20 minutes at room temperature. The interphase layer of mononuclear cells were collected, washed three times with Ca/Mg free phosphate buffered saline containing 1% bovine serum albumin (BSA). The cells were incubated for 30 minutes at 4° C. with murine monoclonal anti CD34 antibody (0.5 μg/10^6 […] cells) and thereafter isolated using the miniMACA apparatus (Miltenyi-Biotec, Bergisch, Gladbach, Germany) according to the manufacturer's protocol.
# Culture procedures: For the expansion of progenitor cells, CD34^+ enriched fractions were seeded at 1×10^4 cells/ml in alpha minimal essential medium containing 10% preselected fetal calf serum (FCS) (both from GIBCO, Grand Island, N.Y.). The medium was supplemented with a mixture of growth factors and Copper chelators. The cultures were incubated at 37° C. in an atmosphere of 5% CO2 in air with extra humidity. Half of the medium was changed weekly with fresh medium containing all the supplements.
# The cloning potential of the cultured cells was assayed in semi-solid medium. The cells were washed and seeded in 35 mm dishes in methylcellulose containing alpha medium supplemented with 30% FCS and further with recombinant growth factors (stem cell factor (SCF), G-CSF, GM-CSF and erythropoietin (EPO)). Following two week incubation, the cultures were scored with an inverted microscope. Colonies were classified as blast, mixed, erythroid, myeloid, and megakaryocytic, according to their cellular composition.
# The effect of Copper-chelating peptides on proliferation and clonability in CD34 cell cultures: Cultures were initiated with 10^4 cord blood-derived CD34^+ cells by plating purified cells in liquid medium in the presence of SCF, FLT3 and IL-6 (50 ng/ml each) and the Copper-binding peptides, Gly-Gly-His (GGH) or Gly-His-Lys (GHL) (10 μM each), or the late-acting cytokines G-CSF and GM-CSF (10 ng/ml each). At weekly intervals, the cultures were demi-depopulated and supplemented with fresh medium, cytokines and the peptides. After 7 weeks, cells were counted and assayed for CFUc.
# [5] = Cytokines + Ly294002, two weeks
# [6] = Cytokines + Ly294002, two weeks, percentage of re-purified CD34+ cells
compound,measurement,setting,value
"C1CNCCNCCNCCN1 [1,4,7,10-Tetraaza cyclododecane]",effect on differentiation of CD34+ cells,CD34 cells,stimulate differentiation
same,Differentiation Induction,[1],Toxic
same,Average Intracellular ppb Cu,HL-60 cells; 20 μM chelator,27.5 ppb
same,Average Intracellular ppb Cu,HL-60 cells; 100 μM chelator,73.9 ppb
same,Average Intracellular ppb Cu,HL-60 cells; 500 μM chelator,Toxic
same,activity at 20 µM,"HL-60 cells; Homo sapiens, HL-60, 20 μM chelator, read-out: Average Intracellular Cu (% of control)",56%
same,activity at 100 µM,"HL-60 cells; Homo sapiens, HL-60, 100 μM chelator, read-out: Average Intracellular Cu (% of control)",150%
Cc1ccc(C2=CCC(C)(C)c3ccc(C#Cc4ccc(C(=O)O)cc4)cc32)cc1 [AGN 193109],increase in the pre-CFU-S population,[2],approximately 6 fold
O=c1cc(N2CCOCC2)oc2c(-c3ccccc3)cccc12 [LY294002],CD34 + CD38- ×10^4,CD34+ cells; [5],4.8 ×10^4
same,CD34 + Lin- ×10^4,CD34+ cells; [5],1.3 ×10^4
same,CD34 × 10^4,CD34+ cells; [5],53 × 10^4
same,TNC × 10^4,CD34+ cells; [5],155 × 10^4
same,CD34 + CD38- (%),CD34+ cells; [6],9.1%
same,CD34 + Lin- (%),CD34+ cells; [6],2.5%
same,absolute content of CD34+CD38− cells,CD34+ cells; two weeks,9×10^4 cells
same,absolute content of CD34+CD38−Lin− cells,CD34+ cells; two weeks,2.5×10^4 cells
same,"content of late progenitor, CD34+ cells","CD34+ cells; two weeks, treated cultures",65×10^4 cells
same,frequency of CD34+ cells among the total cultured cells,CD34+ cells; two-weeks treatment,0.3
same,membrane permeability,[3],membrane permeable
Gly-Gly-His [GGH],effect on differentiation of CD34+ cells,CD34 cells,stimulate differentiation
same,decrease of cell number,[4],10%
same,decrease of clonogenic potential (CFUc),[4],80%
Gly-His-Lys [GHL],effect on differentiation of CD34+ cells,CD34 cells,stimulate differentiation
same,decrease of cell number,[4],25%
same,decrease of clonogenic potential (CFUc),[4],78%
